Measured values reported in ChEMBL document CHEMBL1909046, “DrugMatrix in vitro pharmacology data”.

Columns and labels:
Nitric oxide synthase 1 = Nitric oxide synthase 1 (Rattus norvegicus, UniProt P29476); type: tissue-based, Cerebellum
[1] = target: T1, C-X-C chemokine receptor type 1 (Homo sapiens, UniProt P25024)
T1 sequence (P25024 whole entry): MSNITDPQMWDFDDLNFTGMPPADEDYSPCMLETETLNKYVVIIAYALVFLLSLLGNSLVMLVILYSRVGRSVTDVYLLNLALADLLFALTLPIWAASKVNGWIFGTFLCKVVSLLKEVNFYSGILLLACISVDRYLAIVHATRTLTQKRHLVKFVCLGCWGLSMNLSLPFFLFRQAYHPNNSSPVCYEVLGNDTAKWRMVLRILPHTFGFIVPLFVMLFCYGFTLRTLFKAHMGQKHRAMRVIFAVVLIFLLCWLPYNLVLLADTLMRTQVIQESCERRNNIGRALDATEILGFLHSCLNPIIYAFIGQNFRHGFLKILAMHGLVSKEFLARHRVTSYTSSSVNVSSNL

Cytochrome P450 2A6 = target: T2, Cytochrome P450 2A6 (Homo sapiens, UniProt P11509); details: bti-tn-5b1-4
T2 sequence (P11509 whole entry): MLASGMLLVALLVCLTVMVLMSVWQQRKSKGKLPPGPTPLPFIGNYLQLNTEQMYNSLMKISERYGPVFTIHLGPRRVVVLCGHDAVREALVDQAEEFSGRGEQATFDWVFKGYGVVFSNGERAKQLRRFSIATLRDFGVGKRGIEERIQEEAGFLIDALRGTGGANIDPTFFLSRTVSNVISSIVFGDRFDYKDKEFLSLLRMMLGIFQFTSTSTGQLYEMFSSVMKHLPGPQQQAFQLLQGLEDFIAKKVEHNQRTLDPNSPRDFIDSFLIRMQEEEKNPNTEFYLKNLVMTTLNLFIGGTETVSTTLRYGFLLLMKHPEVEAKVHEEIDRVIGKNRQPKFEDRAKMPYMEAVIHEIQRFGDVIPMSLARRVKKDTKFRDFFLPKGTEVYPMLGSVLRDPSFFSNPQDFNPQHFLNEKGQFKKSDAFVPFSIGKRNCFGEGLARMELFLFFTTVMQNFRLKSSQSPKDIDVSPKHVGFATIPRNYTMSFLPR

[2] = target: Protein kinase C alpha type (Homo sapiens, UniProt P17252); type: cell-based; details: sf9;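 also: inhibition of PKCalpha kinase activity measured in an enzyme assay with histone as the phosphorylation substrate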
[3] = target: T3, Neuropeptide Y receptor type 1 (Homo sapiens, UniProt P25929); type: cell membranes, Membrane; details: sk-n-mc
T3 sequence (P25929 whole entry): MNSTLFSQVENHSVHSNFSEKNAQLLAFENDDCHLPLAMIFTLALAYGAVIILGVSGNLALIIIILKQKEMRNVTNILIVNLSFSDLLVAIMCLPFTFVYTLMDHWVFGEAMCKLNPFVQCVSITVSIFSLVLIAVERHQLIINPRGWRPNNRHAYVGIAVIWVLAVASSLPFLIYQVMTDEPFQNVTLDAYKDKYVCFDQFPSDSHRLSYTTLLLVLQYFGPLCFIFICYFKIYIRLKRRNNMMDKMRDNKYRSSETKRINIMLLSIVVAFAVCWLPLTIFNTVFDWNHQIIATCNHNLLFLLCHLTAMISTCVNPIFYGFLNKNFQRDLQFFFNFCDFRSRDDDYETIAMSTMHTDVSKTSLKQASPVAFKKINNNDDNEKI

Adenosine receptor A1 = target: T4, Adenosine receptor A1 (Homo sapiens, UniProt P30542); type: cell membranes, CHO, Membrane; details: cho;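 also: radioligand binding assay at the adenosine A1 receptor, with DPCPX serving as the labelled ligand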
T4 sequence (P30542 whole entry): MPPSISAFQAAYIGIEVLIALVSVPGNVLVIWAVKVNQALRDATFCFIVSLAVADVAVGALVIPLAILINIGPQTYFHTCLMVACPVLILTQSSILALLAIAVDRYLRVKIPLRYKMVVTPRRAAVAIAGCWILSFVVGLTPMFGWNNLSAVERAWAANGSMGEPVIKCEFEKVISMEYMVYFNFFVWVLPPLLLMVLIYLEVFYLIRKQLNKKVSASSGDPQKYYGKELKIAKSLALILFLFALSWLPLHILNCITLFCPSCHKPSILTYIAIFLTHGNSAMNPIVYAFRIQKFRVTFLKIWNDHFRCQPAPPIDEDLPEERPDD

Cathepsin G = target: T5, Cathepsin G (Homo sapiens, UniProt P08311); type: tissue-based; details: neutrophil;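 also: inhibition of Cathepsin G enzyme activity, tested on an AMC-conjugated peptide substrate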
T5 sequence (P08311 whole entry): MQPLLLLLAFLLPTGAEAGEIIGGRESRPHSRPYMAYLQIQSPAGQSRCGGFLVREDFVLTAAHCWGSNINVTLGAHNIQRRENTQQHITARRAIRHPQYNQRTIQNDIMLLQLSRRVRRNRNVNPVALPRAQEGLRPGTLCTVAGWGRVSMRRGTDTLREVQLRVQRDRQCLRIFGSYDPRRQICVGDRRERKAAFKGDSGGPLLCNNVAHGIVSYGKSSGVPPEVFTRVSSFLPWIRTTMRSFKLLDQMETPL

Melanocortin receptor 4 = Melanocortin receptor 4 (Homo sapiens, UniProt P32245); type: cell membranes, Membrane; details: hek293
Cytochrome P450 1A2 = target: T6, Cytochrome P450 1A2 (Homo sapiens, UniProt P05177); details: bti-tn-5b1-4
T6 sequence (P05177 whole entry): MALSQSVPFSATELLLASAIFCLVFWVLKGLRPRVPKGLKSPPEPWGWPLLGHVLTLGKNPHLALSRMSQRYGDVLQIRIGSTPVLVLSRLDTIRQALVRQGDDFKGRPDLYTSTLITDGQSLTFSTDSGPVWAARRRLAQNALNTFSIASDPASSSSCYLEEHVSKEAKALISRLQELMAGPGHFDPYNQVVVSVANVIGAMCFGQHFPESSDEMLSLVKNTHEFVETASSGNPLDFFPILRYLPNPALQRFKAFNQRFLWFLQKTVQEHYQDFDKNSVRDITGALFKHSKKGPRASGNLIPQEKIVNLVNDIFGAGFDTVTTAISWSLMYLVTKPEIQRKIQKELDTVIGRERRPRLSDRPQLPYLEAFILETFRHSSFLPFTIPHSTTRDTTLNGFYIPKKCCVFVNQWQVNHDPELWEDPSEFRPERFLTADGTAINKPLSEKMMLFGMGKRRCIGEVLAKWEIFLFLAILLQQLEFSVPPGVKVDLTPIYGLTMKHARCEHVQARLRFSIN
Also: in other assays of this panel Not Active means under 50% inhibition at 10 µM.

Sequence of Melanocortin receptor 4 (P32245 whole entry): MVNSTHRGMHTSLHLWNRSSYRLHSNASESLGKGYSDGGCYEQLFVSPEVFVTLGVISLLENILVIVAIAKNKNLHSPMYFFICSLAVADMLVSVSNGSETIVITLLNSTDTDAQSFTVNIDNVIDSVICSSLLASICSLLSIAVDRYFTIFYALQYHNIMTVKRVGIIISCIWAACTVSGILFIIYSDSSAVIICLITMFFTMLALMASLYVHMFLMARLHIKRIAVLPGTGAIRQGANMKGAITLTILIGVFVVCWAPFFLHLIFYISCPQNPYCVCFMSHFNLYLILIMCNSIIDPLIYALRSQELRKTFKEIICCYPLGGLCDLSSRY
Sequence of Nitric oxide synthase 1 (P29476 whole entry): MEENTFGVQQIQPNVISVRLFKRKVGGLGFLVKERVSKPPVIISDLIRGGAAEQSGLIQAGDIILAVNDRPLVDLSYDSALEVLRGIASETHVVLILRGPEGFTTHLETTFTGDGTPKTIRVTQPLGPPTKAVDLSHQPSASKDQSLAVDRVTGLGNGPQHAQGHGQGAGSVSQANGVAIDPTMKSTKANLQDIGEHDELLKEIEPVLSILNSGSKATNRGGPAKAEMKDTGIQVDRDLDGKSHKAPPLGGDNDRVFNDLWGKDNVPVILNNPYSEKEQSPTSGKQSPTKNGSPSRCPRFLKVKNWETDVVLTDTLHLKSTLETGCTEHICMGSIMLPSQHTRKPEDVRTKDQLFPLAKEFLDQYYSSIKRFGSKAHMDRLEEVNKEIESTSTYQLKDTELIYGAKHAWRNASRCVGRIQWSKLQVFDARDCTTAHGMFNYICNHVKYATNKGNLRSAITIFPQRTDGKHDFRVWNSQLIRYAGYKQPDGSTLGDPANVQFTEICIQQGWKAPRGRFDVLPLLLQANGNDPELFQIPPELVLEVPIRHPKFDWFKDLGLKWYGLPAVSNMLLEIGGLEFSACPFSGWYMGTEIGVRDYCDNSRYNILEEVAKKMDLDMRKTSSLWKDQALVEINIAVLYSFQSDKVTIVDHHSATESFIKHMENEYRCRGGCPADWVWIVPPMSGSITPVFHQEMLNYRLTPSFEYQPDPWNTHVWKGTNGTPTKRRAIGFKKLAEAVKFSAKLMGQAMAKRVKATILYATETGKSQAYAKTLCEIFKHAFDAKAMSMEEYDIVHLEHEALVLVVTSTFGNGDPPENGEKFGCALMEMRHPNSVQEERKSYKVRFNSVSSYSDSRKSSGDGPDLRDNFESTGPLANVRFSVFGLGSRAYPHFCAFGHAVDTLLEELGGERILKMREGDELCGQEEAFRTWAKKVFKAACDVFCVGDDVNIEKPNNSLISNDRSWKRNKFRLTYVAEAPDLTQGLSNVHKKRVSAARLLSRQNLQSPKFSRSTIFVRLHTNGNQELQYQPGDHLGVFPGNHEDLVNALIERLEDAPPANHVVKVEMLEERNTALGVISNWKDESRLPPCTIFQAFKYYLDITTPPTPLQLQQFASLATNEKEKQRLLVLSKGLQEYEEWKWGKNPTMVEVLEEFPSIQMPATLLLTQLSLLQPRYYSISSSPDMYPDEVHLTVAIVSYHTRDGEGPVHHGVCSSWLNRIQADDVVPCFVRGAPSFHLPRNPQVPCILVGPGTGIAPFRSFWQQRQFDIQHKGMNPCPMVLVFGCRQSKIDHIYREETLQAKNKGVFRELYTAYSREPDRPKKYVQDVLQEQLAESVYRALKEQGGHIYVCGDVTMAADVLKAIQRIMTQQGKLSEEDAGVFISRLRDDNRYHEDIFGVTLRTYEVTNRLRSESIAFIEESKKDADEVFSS

O=C(O)c1ccccc1O [SALICYLIC ACID]
Not Active: IC50 (Nitric oxide synthase 1) | IC50 [1] | IC50 (Cytochrome P450 2A6) | Ki (Cytochrome P450 2A6) | IC50 [2] | IC50 [3] | IC50 (Adenosine receptor A1) | IC50 (Cathepsin G) | IC50 (Melanocortin receptor 4) | IC50 (Cytochrome P450 1A2) | Ki (Cytochrome P450 1A2)

CC1CCC(NC(=O)N(CCCl)N=O)CC1 (stereo not given) [SEMUSTINE]
Not Active: IC50 (Nitric oxide synthase 1) | IC50 [1] | IC50 (Cytochrome P450 2A6) | Ki (Cytochrome P450 2A6) | IC50 [2] | IC50 [3] | IC50 (Adenosine receptor A1) | IC50 (Cathepsin G) | IC50 (Melanocortin receptor 4) | IC50 (Cytochrome P450 1A2) | Ki (Cytochrome P450 1A2)

O=C1C[C@@H]2OCC=C3CN4CC[C@]56c7ccccc7N1[C@H]5[C@H]2[C@H]3C[C@H]46 [STRYCHNINE]
Not Active: IC50 (Nitric oxide synthase 1) | IC50 [1] | IC50 (Cytochrome P450 2A6) | Ki (Cytochrome P450 2A6) | IC50 [2] | IC50 [3] | IC50 (Adenosine receptor A1) | IC50 (Cathepsin G) | IC50 (Melanocortin receptor 4) | IC50 (Cytochrome P450 1A2) | Ki (Cytochrome P450 1A2)

C[N+](C)(C)CCOC(=O)CCC(=O)OCC[N+](C)(C)C.[Cl-].[Cl-] [SUCCINYLCHOLINE CHLORIDE]
Not Active: IC50 (Nitric oxide synthase 1) | IC50 [1] | IC50 (Cytochrome P450 2A6) | Ki (Cytochrome P450 2A6) | IC50 [2] | IC50 [3] | IC50 (Adenosine receptor A1) | IC50 (Cathepsin G) | IC50 (Melanocortin receptor 4) | IC50 (Cytochrome P450 1A2) | Ki (Cytochrome P450 1A2)

Nc1ccc(S(=O)(=O)NC(=O)c2ccccc2)cc1 [SULFABENZAMIDE]
Not Active: IC50 (Nitric oxide synthase 1) | IC50 [1] | IC50 (Cytochrome P450 2A6) | Ki (Cytochrome P450 2A6) | IC50 [2] | IC50 [3] | IC50 (Adenosine receptor A1) | IC50 (Cathepsin G) | IC50 (Melanocortin receptor 4) | IC50 (Cytochrome P450 1A2) | Ki (Cytochrome P450 1A2)

O=c1[nH]c(=O)n(C2CCCO2)cc1F (stereo not given) [TEGAFUR]
Not Active: IC50 (Nitric oxide synthase 1) | IC50 [1] | IC50 (Cytochrome P450 2A6) | Ki (Cytochrome P450 2A6) | IC50 [2] | IC50 [3] | IC50 (Adenosine receptor A1) | IC50 (Cathepsin G) | IC50 (Melanocortin receptor 4) | IC50 (Cytochrome P450 1A2) | Ki (Cytochrome P450 1A2)

CC(=N)S [THIOACETAMIDE]
Not Active: IC50 (Nitric oxide synthase 1) | IC50 [1] | IC50 (Cytochrome P450 2A6) | Ki (Cytochrome P450 2A6) | IC50 [2] | IC50 [3] | IC50 (Adenosine receptor A1) | IC50 (Cathepsin G) | IC50 (Melanocortin receptor 4) | IC50 (Cytochrome P450 1A2) | Ki (Cytochrome P450 1A2)

Cc1ccc(C(=O)c2ccc(CC(=O)O)n2C)cc1 [TOLMETIN]
Not Active: IC50 (Nitric oxide synthase 1) | IC50 [1] | IC50 (Cytochrome P450 2A6) | Ki (Cytochrome P450 2A6) | IC50 [2] | IC50 [3] | IC50 (Adenosine receptor A1) | IC50 (Cathepsin G) | IC50 (Melanocortin receptor 4) | IC50 (Cytochrome P450 1A2) | Ki (Cytochrome P450 1A2)

CC(=O)OCC(COC(C)=O)OC(C)=O [TRIACETIN]
Not Active: IC50 (Nitric oxide synthase 1) | IC50 [1] | IC50 (Cytochrome P450 2A6) | Ki (Cytochrome P450 2A6) | IC50 [2] | IC50 [3] | IC50 (Adenosine receptor A1) | IC50 (Cathepsin G) | IC50 (Melanocortin receptor 4) | IC50 (Cytochrome P450 1A2) | Ki (Cytochrome P450 1A2)

TRANSPLATIN
Not Active: IC50 (Nitric oxide synthase 1) | Ki (Nitric oxide synthase 1) | IC50 [1] | Ki [1] | IC50 (Cytochrome P450 2A6) | Ki (Cytochrome P450 2A6) | IC50 [2] | Ki [2] | IC50 [3] | Ki [3] | IC50 (Adenosine receptor A1) | Ki (Adenosine receptor A1) | IC50 (Cathepsin G) | Ki (Cathepsin G) | IC50 (Melanocortin receptor 4) | Ki (Melanocortin receptor 4) | IC50 (Cytochrome P450 1A2) | Ki (Cytochrome P450 1A2)

ZIRCONIUM(IV) CHLORIDE
Not Active: IC50 (Nitric oxide synthase 1) | Ki (Nitric oxide synthase 1) | IC50 [1] | Ki [1] | IC50 (Cytochrome P450 2A6) | Ki (Cytochrome P450 2A6) | IC50 [2] | Ki [2] | IC50 [3] | Ki [3] | IC50 (Adenosine receptor A1) | Ki (Adenosine receptor A1) | IC50 (Cathepsin G) | Ki (Cathepsin G) | IC50 (Melanocortin receptor 4) | Ki (Melanocortin receptor 4) | IC50 (Cytochrome P450 1A2) | Ki (Cytochrome P450 1A2)
